The assay has as its system Rattus norvegicus. Nature of the assay: Neuroprotective activity (1 mg/kg) administered intravenously was evaluated in rat model of focal cerebral ischemia induced by permanent occlusion of the middle cerebral artery(MCA). It is filed as functional.
The molecule `O[C@@H](CN1CCC(Cc2ccc(F)cc2)CC1)c1ccc(Cl)cc1` yielded an Infarct volume of 37.7 mm³.

`O[C@H](CN1CCC(Cc2ccc(F)cc2)CC1)c1ccc(Cl)cc1` registered an Infarct volume of 58.9 mm³.

The molecule `OC(CN1CCC(Cc2ccc(F)cc2)CC1)c1ccc(Cl)cc1` (racemic) [ELIPRODIL] gave an Infarct volume of 33.3 mm³.

Values taken from ChEMBL document CHEMBL1128848, “The asymmetric synthesis of both enantiomers of eliprodil” (1995).
